Measurements published in PMC10287695, “Non-covalent inhibitors of thioredoxin glutathione reductase with schistosomicidal activity in vivo” (Nature Communications, 2023).
Where “and” joins values, the source holds several entries; their conditions need not be identical. Equal entries are not always repeated.

How the values were obtained:
[1] = biological target: T1, TGR (Schistosoma mansoni, UniProt Q962Y6); assay: Thermal shift assay (TSA); type: binding; set-up: key to Avg. Tm / Tm, replicate 1-3: Tm in °C, from a 25–95 °C melt curve; settings: for Avg. Tm / Tm, replicate 1-3: TGR + 100 µM compound; for Avg. Tm, + 500 µM NADPH / Tm, replicate 1-3, + 500 µM NADPH: TGR + 100 µM compound + 500 µM NADPH; for Tm, replicate 1-3, + 500 µM NADPH / Tm, replicate 1-3: single replicates; for effect on Tm of oxidized TGR: without NADPH
T1 construct: made in house
T1 sequence (Q962Y6 1-598): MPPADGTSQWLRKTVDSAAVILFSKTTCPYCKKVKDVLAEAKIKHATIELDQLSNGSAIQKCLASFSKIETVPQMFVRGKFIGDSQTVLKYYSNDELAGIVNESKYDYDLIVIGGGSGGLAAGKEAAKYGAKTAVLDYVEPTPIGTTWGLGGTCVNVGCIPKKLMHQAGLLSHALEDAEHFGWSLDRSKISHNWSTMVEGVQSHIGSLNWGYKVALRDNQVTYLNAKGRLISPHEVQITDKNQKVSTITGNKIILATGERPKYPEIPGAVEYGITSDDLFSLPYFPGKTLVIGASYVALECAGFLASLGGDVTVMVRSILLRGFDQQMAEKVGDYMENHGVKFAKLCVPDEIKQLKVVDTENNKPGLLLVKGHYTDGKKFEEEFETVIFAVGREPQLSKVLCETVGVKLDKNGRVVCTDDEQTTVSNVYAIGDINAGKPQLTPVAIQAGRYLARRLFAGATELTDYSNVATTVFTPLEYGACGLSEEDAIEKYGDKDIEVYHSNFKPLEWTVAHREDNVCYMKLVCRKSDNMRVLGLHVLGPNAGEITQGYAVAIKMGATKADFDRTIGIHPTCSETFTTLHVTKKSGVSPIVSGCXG
Method: Samples were prepared by using a final concentration of 0.25 mg/ml TGR diluted in TGR reaction buffer to the desired volume. To evaluate reduced TGR, 500 µM NADPH was added. […] After the preincubation period, 20 µL samples were pipetted into a BioRad un-skirted PCR 96 well plate and sealed with MicroAmp^TM Optical Adhesive film. The plate was then centrifuged for 5 min at 1000 × g. TSA was carried out using a BioRad CFX Connect qPCR instrument with a melt curve setting of 25 − 95 °C, in increments of 0.5 °C/10 seconds. The SYBR green channel was used to detect fluorescence as the wavelength of flavin fluorescence overlaps with that of SYBR green. BioRad CFX Maestro 5.2 was used to analyze TSA data.

[2] = biological target: T1, TGR; assay: Time dependence of inhibition; type: biochemical; set-up: avg % inhib, 0.5 hr / avg % inhib, 1 hr / avg % inhib, 2 hr / avg % inhib, 3 hr / avg % inhib, 6 hr / avg % inhib, 24 hr: tested at 50 µM; settings: for rate, 0.5 hr / avg % inhib, 0.5 hr / % inhib, 0.5 hr / rate, 1 hr / avg % inhib, 1 hr / % inhib, 1 hr / rate, 2 hr / avg % inhib, 2 hr / % inhib, 2 hr / rate, 3 hr / avg % inhib, 3 hr / % inhib, 3 hr / rate, 6 hr / avg % inhib, 6 hr / % inhib, 6 hr / rate, 24 hr / avg % inhib, 24 hr / % inhib, 24 hr: panel d Time Dependence; for avg % inhib, 0.5 hr / avg % inhib, 1 hr / avg % inhib, 2 hr / avg % inhib, 3 hr / avg % inhib, 6 hr / avg % inhib, 24 hr: average
Method: TGR was incubated at room temperature (up to 6 h) and at 4 °C for 6 to 24 h with 50 µM inhibitor and 100 µM NADPH for the indicated times. Then DTNB (3 mM) and NADPH (100 µM) were added, and the reaction was monitored at A412 for 5 min. The assay was done in triplicate.

[3] = tested on: S. japonicum adult worms; assay: Schistosomicidal activity ex vivo, S. japonicum adult worms; type: cell-based; settings: 48 h exposure
Method: Three-week old, female Swiss-Webster mice obtained from the Charles River were housed in the Comparative Research Center of Rush University Medical Center. Mice were infected by percutaneous tail exposure to about 200 S. mansoni or 50 S. japonicum cercaria for adult worms and about 1000 cercaria for juvenile S. mansoni worms through natural transdermal penetration of the cercariae for 1 h[81].
DMSO formulated compounds were diluted with phenol red free M199 medium or RPMI medium for NTS or juvenile and adult worms, respectively, at <1% DMSO final concentrations. NTS, juvenile and adult worms from overnight cultures were tested against compounds in triplicate. Controls were treated with DMSO alone or 5 µM AF as a positive control in appropriate medium. […] Schistosome viabilities in the presence of the compounds were assessed using this formula: % Viability = Averages of Test / Averages of DMSO Control x 100.

[4] = Cytotoxicity in mammalian cells (Cell Titer Glo); type: cell-based; settings: African green monkey, Vero cells
Method: Following overnight incubation, formulated DMSO-compound stock solutions were diluted with DMEM at <1% DMSO final concentrations. […] Vero cells treated similarly with different concentrations of PZQ, MZM and AF (Cayman Chemicals) were used as positive controls.

In the case of Cc1oc(-c2ccccc2)nc1CN[C@@H]1C[C@@H]2C[C@H]([C@H]1C)C2(C)C [Compound 3], the “Avg. Tm” value [1] is reported as 73.5, the “Avg. Tm, + 500 µM NADPH” value [1] is reported as 73.67 and the “Tm, replicate 1-3, + 500 µM NADPH” value [1] is reported as 74 and 73.5 (2×). For the same compound, the “Tm, replicate 1-3” value ([1]; in °C (unit assumed)) was 73.5, the “effect on Tm of oxidized TGR” value [1] was “Neither fast 6-9 nor slow TGR inhibitors 1, 3, 5 affected the Tm” and the “rate, 0.5 hr” value [2] was 0.04131 and 0.04323 and 0.04147. The “avg % inhib, 0.5 hr” value [2] was 24.9564%, the “% inhib, 0.5 hr” value ([2]; replicates) was 25.1766% and 23.3647% and 26.3279% and the “rate, 1 hr” value [2] was 0.03461 and 0.03399 and 0.03516. The “avg % inhib, 1 hr” value [2] was 32.5613%, the “% inhib, 1 hr” value ([2]; replicates) was 32.6392% and 32.4657% and 32.5791% and the “rate, 2 hr” value [2] was 0.02942 and 0.0272 and 0.02813. For the same compound, the “avg % inhib, 2 hr” value [2] was 39.6519%, the “% inhib, 2 hr” value ([2]; replicates) was 35.4116% and 41.9052% and 41.639% and the “rate, 3 hr” value [2] was 0.02162 and 0.0222 and 0.02273. For the same compound, the “avg % inhib, 3 hr” value [2] was 45.1094%, the “% inhib, 3 hr” value ([2]; replicates) was 45.8417% and 44.831% and 44.6555% and the “rate, 6 hr” value [2] was 0.01203 and 0.009487 and 0.01329. The “avg % inhib, 6 hr” value [2] was 55.8948%, the “% inhib, 6 hr” value ([2]; replicates) was 54.3454% and 63.1143% and 50.2247% and the “rate, 24 hr” value [2] was 0.008207 and 0.008188 and 0.0092. For the same compound, the “avg % inhib, 24 hr” value [2] was 56.6355%, the “% inhib, 24 hr” value ([2]; replicates) was 56.206% and 58.6882% and 55.0122% and the “LD50 ex vivo S. japonicum adult” value [3] was 13.9 ± 1.45 µM.
With C[C@@H]1[C@H]2C[C@@H](C[C@H]1NCc1cc(-c3ccccc3)[nH]n1)C2(C)C [Compound 11] the “increase in the Tm of TGR in the presence of NADPH” value ([1]; 500 µM NADPH) was “no effect”, the “Avg. Tm” value [1] was 73.5 and the “Avg. Tm, + 500 µM NADPH” value [1] was 63.67. The “Tm, replicate 1-3, + 500 µM NADPH” value [1] was 63.5 (2×) and 64, the “Tm, replicate 1-3” value ([1]; in °C (unit assumed)) was 73.5 and the “effect on Tm of oxidized TGR” value [1] was “no effect”.
Work on CC1C(NCc2cn(C3OCC(O)C(O)C3O)c3ccccc23)CC2CC1C2(C)C (stereo not shown) [Compound 9] yielded a viability at 24 h, 5 µM ([4]; 5 µM, relative to untreated control) of 92.7%, a viability at 24 h, 10 µM ([4]; 10 µM, relative to untreated control) of 90.7% and a viability at 24 h, 25 µM ([4]; 25 µM, relative to untreated control) of 89.9%. For the same compound, the viability at 24 h, 35 µM ([4]; 35 µM, relative to untreated control) was 89.6%, the viability at 24 h, 50 µM ([4]; 50 µM, relative to untreated control) was 83.5% and the “shift of Tm of reduced TGR” value ([1]; 400uM compound) was 1.5 °C. The “shift of Tm of reduced TGR” value ([1]; 1mM compound) was 3 °C, the “Avg. Tm” value [1] was 74.8 and the “Avg. Tm, + 500 µM NADPH” value [1] was 68. For the same compound, the “Tm, replicate 1-3, + 500 µM NADPH” value ([1]; in °C (unit assumed)) was 67.5 and 68 and 69, the “Tm, replicate 1-3” value [1] was 74.5 (2×) and 75 and the “effect on Tm of oxidized TGR” value [1] was “doesn’t shift the Tm”.
For C#CCN(Cc1nc(-c2ccccc2)oc1C)[C@@H]1C[C@@H]2C[C@H]([C@H]1C)C2(C)C [Compound 6], the viability at 24 h, 1 µM ([4]; Conc. 1 µM) was 99.1%, the viability at 24 h, 5 µM ([4]; Conc. 5 µM) was 99% and the viability at 24 h, 10 µM ([4]; Conc. 10 µM) was 91.1%. It also gave a viability at 24 h, 25 µM ([4]; Conc. 25 µM) of 86.8%, a viability at 24 h, 50 µM ([4]; Conc. 50 µM) of 79.9% and a viability at 24 h, 100 µM ([4]; Conc. 100 µM) of 63.9%. For the same compound, the “TGR activity relative to dmso, time 0” value ([2]; panel c, time 0 (time unit not given), replicates) was 3.265 and 0.9012, the “TGR activity relative to dmso, time 5” value ([2]; panel c, time 5 (time unit not given), replicates) was 0.7526 and -0.07048 and -0.5247 and the “TGR activity relative to dmso, time 10” value ([2]; panel c, time 10 (time unit not given), replicates) was 0.5708 and -0.4368 and -0.3757. For the same compound, the “TGR activity relative to dmso, time 15” value ([2]; panel c, time 15 (time unit not given), replicates) was 0.7215 and 0.1963 and -0.1983 and the “TGR activity relative to dmso, time 30” value ([2]; panel c, time 30 (time unit not given), replicates) was 2.551 and 1.111 and 1.493.
In the case of Cc1oc(-c2ccc3ccccc3c2)nc1CNC1CCCCCC1 [Compound 5], the “Avg. Tm” value [1] is reported as 73.5, the “Avg. Tm, + 500 µM NADPH” value [1] is reported as 73.5 and the “Tm, replicate 1-3, + 500 µM NADPH” value ([1]; in °C (unit assumed)) is reported as 73.5. For the same compound, the “Tm, replicate 1-3” value ([1]; in °C (unit assumed)) was 73.5, the “effect on Tm of oxidized TGR” value [1] was “Neither fast 6-9 nor slow TGR inhibitors 1, 3, 5 affected the Tm” and the “rate, 0.5 hr” value [2] was 0.06403 and 0.06491 and 0.06611. The “avg % inhib, 0.5 hr” value [2] was 19.3871%, the “% inhib, 0.5 hr” value ([2]; replicates) was 19.4895% and 20.5216% and 18.1503% and the “rate, 1 hr” value [2] was 0.05507 and 0.05598 and 0.05641. The “avg % inhib, 1 hr” value [2] was 24.7276%, the “% inhib, 1 hr” value ([2]; replicates) was 25.2173% and 23.9092% and 25.0565% and the “rate, 2 hr” value [2] was 0.04485 and 0.04477 and 0.04629. For the same compound, the “avg % inhib, 2 hr” value [2] was 32.9849%, the “% inhib, 2 hr” value ([2]; replicates) was 32.4141% and 34.3548% and 32.1858% and the “rate, 3 hr” value [2] was 0.03515 and 0.03538 and 0.0359. The “avg % inhib, 3 hr” value [2] was 39.3918%, the “% inhib, 3 hr” value ([2]; replicates) was 39.6774% and 39.4903% and 39.0078% and the “rate, 6 hr” value [2] was 0.02164 and 0.02197 and 0.02345. The “avg % inhib, 6 hr” value [2] was 53.9938%, the “% inhib, 6 hr” value ([2]; replicates) was 54.1525% and 54.5887% and 53.2403% and the “rate, 24 hr” value [2] was 0.00977 and 0.01005 and 0.01035. The “avg % inhib, 24 hr” value [2] was 73.1913% and the “% inhib, 24 hr” value ([2]; replicates) was 73.884% and 73.0491% and 72.6408%.
